Assay results from ChEMBL document CHEMBL1201861, “Genomics of Drug Sensitity in Cancer screening data, Wellcome Trust Sanger Institute”.

Assays:
Assay in all cases: cells
D-247MG = format: functional, cell-based, Homo sapiens; details: Homo sapiens, D-247MG
Description: SANGER: Inhibition of human D-247MG cell growth in a cell viability assay.

DMS-79 = format: functional, cell-based; details: Homo sapiens;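 further: growth inhibition measured with a cell viability assay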
Description: SANGER: Inhibition of human DMS-79 cell growth in a cell viability assay.

ES1 = format: functional, cell-based, Homo sapiens; details: Homo sapiens, ES1;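 further: growth inhibition of ES1 cells, read out with a cell viability assay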
Description: SANGER: Inhibition of human ES1 cell growth in a cell viability assay.

EW-1 = format: functional, cell-based, Homo sapiens; details: Homo sapiens, EW-1
Description: SANGER: Inhibition of human EW-1 cell growth in a cell viability assay.

EW-11 = format: functional, cell-based, Homo sapiens; details: Homo sapiens, EW-11;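 further: growth inhibition of human EW-11 cells, measured with a cell viability assay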
Description: SANGER: Inhibition of human EW-11 cell growth in a cell viability assay.

EW-24 = format: functional, cell-based; details: Homo sapiens;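 further: human EW-24 cancer cell line, growth inhibition read out via a cell viability assay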
Description: SANGER: Inhibition of human EW-24 cell growth in a cell viability assay.

FaDu = format: functional, cell-based, Homo sapiens; details: Homo sapiens, FaDu;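 further: cell viability readout of growth inhibition in FaDu cells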
Description: SANGER: Inhibition of human FADU cell growth in a cell viability assay.

HCC1187 = format: functional, cell-based, Homo sapiens; details: Homo sapiens, HCC1187;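 further: growth inhibition of HCC1187 cells, read out with a cell viability assay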
Description: SANGER: Inhibition of human HCC1187 cell growth in a cell viability assay.

HCC2218 = format: functional, cell-based; details: Homo sapiens;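 further: cell viability assay read-out, with IC50 given as the concentration that inhibits growth of the cell line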
Description: SANGER: Inhibition of human HCC2218 cell growth in a cell viability assay.

HCE-4 = format: functional, cell-based, Homo sapiens; details: Homo sapiens, HCE-4;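 further: cell viability assay measuring inhibition of growth in the human HCE-4 cell line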
Description: SANGER: Inhibition of human HCE-4 cell growth in a cell viability assay.

HN = format: functional, cell-based, Homo sapiens; details: Homo sapiens, HN
Description: SANGER: Inhibition of human HN cell growth in a cell viability assay.

HOP-62 = format: functional, cell-based, Homo sapiens; details: Homo sapiens, HOP-62;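 further: cell growth inhibition determined with a viability assay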
Description: SANGER: Inhibition of human HOP-62 cell growth in a cell viability assay.

HuCCT-1 = format: functional, cell-based, Homo sapiens, HuCCT1; details: Homo sapiens, HuCCT-1;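 further: growth inhibition of HuCCT-1 cells, read out by a cell viability assay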
Description: SANGER: Inhibition of human HuCCT1 cell growth in a cell viability assay.

JVM-2 = format: functional, cell-based; details: Homo sapiens;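 further: growth inhibition of JVM-2 cells determined by a cell viability assay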
Description: SANGER: Inhibition of human JVM-2 cell growth in a cell viability assay.

LB771-HNC = format: functional, cell-based, Homo sapiens; details: Homo sapiens, LB771-HNC;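 further: growth inhibition of LB771-HNC human cells, read out with a cell viability assay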
Description: SANGER: Inhibition of human LB771-HNC cell growth in a cell viability assay.

LK-2 = format: functional, cell-based, Homo sapiens; details: Homo sapiens, LK-2;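 further: growth inhibition of LK-2 cells, read out with a viability assay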
Description: SANGER: Inhibition of human LK-2 cell growth in a cell viability assay.

LS-123 = format: functional, cell-based, Homo sapiens; details: Homo sapiens, LS-123
Description: SANGER: Inhibition of human LS-123 cell growth in a cell viability assay.

M14 = format: functional, cell-based, Homo sapiens; details: Homo sapiens, M14;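 further: growth inhibition of M14 cells, read out with a cell viability assay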
Description: SANGER: Inhibition of human M14 cell growth in a cell viability assay.

MDA-MB-415 = format: functional, cell-based; details: Homo sapiens
MKN-28 = format: functional, cell-based, Homo sapiens; details: Homo sapiens, MKN-28;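 further: cell viability assay read-out, IC50 reflects suppression of growth of human MKN-28 cells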
Description: SANGER: Inhibition of human MKN28 cell growth in a cell viability assay.

MSTO-211H = format: functional, cell-based, Homo sapiens; details: Homo sapiens, MSTO-211H
Description: SANGER: Inhibition of human MSTO-211H cell growth in a cell viability assay.

NCI-H2342 = format: functional, cell-based; details: Homo sapiens;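 further: growth inhibition of the cancer cell line, determined with a cell viability assay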
Description: SANGER: Inhibition of human NCI-H2342 cell growth in a cell viability assay.

NCI-H2347 = format: functional, cell-based, Homo sapiens; details: Homo sapiens, NCI-H2347;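 further: growth inhibition of the cell line, read out with a cell viability assay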
Description: SANGER: Inhibition of human NCI-H2347 cell growth in a cell viability assay.

NCI-H69 = format: functional, cell-based; details: Homo sapiens;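 further: growth inhibition of the cell line, read out with a cell viability assay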
Description: SANGER: Inhibition of human NCI-H69 cell growth in a cell viability assay.

NCI-H720 = format: functional, cell-based; details: Homo sapiens;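 further: growth inhibition of human NCI-H720 cells determined by a cell viability assay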
Description: SANGER: Inhibition of human NCI-H720 cell growth in a cell viability assay.

NY = format: functional, cell-based, Homo sapiens; details: Homo sapiens, NY
Description: SANGER: Inhibition of human NY cell growth in a cell viability assay.

P12-Ichikawa = format: functional, cell-based; details: Homo sapiens
Panc1005 = format: functional, cell-based, Homo sapiens; details: Homo sapiens, Panc1005;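 further: growth inhibition of human PANC-10-05 cells, measured by a cell viability assay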
Description: SANGER: Inhibition of human PANC-10-05 cell growth in a cell viability assay.

RO82-W-1 = format: functional, cell-based, Homo sapiens; details: Homo sapiens, RO82-W-1;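 further: growth inhibition of human RO82-W-1 cells, measured with a cell viability assay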
Description: SANGER: Inhibition of human RO82-W-1 cell growth in a cell viability assay.

RPMI-2650 = format: functional, cell-based, Homo sapiens; details: Homo sapiens, RPMI-2650
Description: SANGER: Inhibition of human RPMI-2650 cell growth in a cell viability assay.

RPMI-7951 = format: functional, cell-based, Homo sapiens; details: Homo sapiens, RPMI-7951
Description: SANGER: Inhibition of human RPMI-7951 cell growth in a cell viability assay.

RPMI-8226 = format: functional, cell-based; details: Homo sapiens
Description: SANGER: Inhibition of human RPMI-8226 cell growth in a cell viability assay.

SCC-4 = format: functional, cell-based, Homo sapiens; details: Homo sapiens, SCC-4;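 further: growth inhibition of human SCC-4 cells, read out as cell viability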
Description: SANGER: Inhibition of human SCC-4 cell growth in a cell viability assay.

SF-539 = format: functional, cell-based, Homo sapiens; details: Homo sapiens, SF-539;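 further: Read-out is a cell viability assay, with IC50 reflecting inhibition of cell growth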
Description: SANGER: Inhibition of human SF539 cell growth in a cell viability assay.

SK-N-AS = format: functional, cell-based, Homo sapiens; details: Homo sapiens, SK-N-AS;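 further: growth inhibition of human SK-N-AS cells, measured with a cell viability assay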
Description: SANGER: Inhibition of human SK-N-AS cell growth in a cell viability assay.

SK-N-FI = format: functional, cell-based, Homo sapiens; details: Homo sapiens, SK-N-FI;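 further: cell viability assay measuring growth inhibition of human SK-N-FI cells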
Description: SANGER: Inhibition of human SK-N-FI cell growth in a cell viability assay.

SK-UT-1 = format: functional, cell-based, Homo sapiens; details: Homo sapiens, SK-UT-1;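 further: growth inhibition of SK-UT-1 cells, measured by a cell viability assay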
Description: SANGER: Inhibition of human SK-UT-1 cell growth in a cell viability assay.

SW982 = format: functional, cell-based; details: Homo sapiens;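 further: growth inhibition of SW982 cells, read out with a cell viability assay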
Description: SANGER: Inhibition of human SW982 cell growth in a cell viability assay.

T84 = format: functional, cell-based, Homo sapiens; details: Homo sapiens, T84;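 further: growth inhibition measured with a cell viability readout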
Description: SANGER: Inhibition of human T84 cell growth in a cell viability assay.

8305C = format: functional, cell-based, Homo sapiens; details: Homo sapiens, 8305C
Description: SANGER: Inhibition of human 8305C cell growth in a cell viability assay.

A101D = format: functional, cell-based, Homo sapiens; details: Homo sapiens, A101D;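 further: growth inhibition of the cell line, measured with a viability assay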
Description: SANGER: Inhibition of human A101D cell growth in a cell viability assay.

ABC-1 = format: functional, cell-based, Homo sapiens; details: Homo sapiens, ABC-1;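 further: growth inhibition of human ABC-1 cells, read out by a cell viability assay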
Description: SANGER: Inhibition of human ABC-1 cell growth in a cell viability assay.

AGS = format: functional, cell-based, Homo sapiens; details: Homo sapiens, AGS;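 further: growth inhibition of AGS cells, determined with a cell viability assay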
Description: SANGER: Inhibition of human AGS cell growth in a cell viability assay.

AU565 = format: functional, cell-based, Homo sapiens; details: Homo sapiens, AU565;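 further: cell viability assay measuring growth inhibition of human AU565 cells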
Description: SANGER: Inhibition of human AU565 cell growth in a cell viability assay.

BT-474 = format: functional, cell-based, Homo sapiens; details: Homo sapiens, BT-474
Description: SANGER: Inhibition of human BT-474 cell growth in a cell viability assay.

Becker = format: functional, cell-based, Homo sapiens; details: Homo sapiens, Becker;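 further: growth inhibition of Becker cells, read out with a cell viability assay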
Description: SANGER: Inhibition of human Becker cell growth in a cell viability assay.

CAL-27 = format: functional, cell-based, Homo sapiens; details: Homo sapiens, CAL-27;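 further: Viability-based readout, IC50 reflecting inhibition of CAL-27 cell growth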
Description: SANGER: Inhibition of human CAL-27 cell growth in a cell viability assay.

U-266 = format: functional, cell-based; details: Homo sapiens
Description: SANGER: Inhibition of human U-266 cell growth in a cell viability assay.

UACC-893 = format: functional, cell-based, Homo sapiens; details: Homo sapiens, UACC-893
Description: SANGER: Inhibition of human UACC-893 cell growth in a cell viability assay.

CAMA-1 = format: functional, cell-based, Homo sapiens; details: Homo sapiens, CAMA-1;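 further: growth inhibition of CAMA-1 cells, read out with a cell viability assay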
Description: SANGER: Inhibition of human CAMA-1 cell growth in a cell viability assay.

CAPAN-1 = format: functional, cell-based, Homo sapiens; details: Homo sapiens, CAPAN-1;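 further: growth suppression of CAPAN-1 cells, read out by a cell viability assay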
Description: SANGER: Inhibition of human CAPAN-1 cell growth in a cell viability assay.

CAS-1 = format: functional, cell-based, Homo sapiens; details: Homo sapiens, CAS-1;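 further: growth inhibition of CAS-1 cells, measured with a cell viability assay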
Description: SANGER: Inhibition of human CAS-1 cell growth in a cell viability assay.

Measured: IC50

Cc1cnc(-c2cnc(NCCNc3ccc(C#N)cn3)nc2-c2ccc(Cl)cc2Cl)[nH]1 [LADUVIGLUSIB]
0.949 µM: D-247MG
0.214 µM: SW982
> 2.56 µM: all other assays above

CN(c1ncccc1CNc1nc(Nc2ccc3c(c2)CC(=O)N3)ncc1C(F)(F)F)S(C)(=O)=O [PF-00562271]
1.1 µM: 8305C
2.25 µM: ABC-1
1.52 µM: AGS
1.45 µM: SK-UT-1
0.328 µM: SW982
> 2.56 µM: all other assays above
